For this assay, the system named is EmGFP-HaloTag. The assay is described as follows: Test Example 1: HeLa cells stably expressing EmGFP-HaloTag, Western blot GFP/actin (Testing Method A). Type of assay: cell-based. As to conditions: 24 hours, 1 or less = degradation promoted. As for the experimental part: Test Example 1: Evaluation Method Using Cell Stably Expressing EmGFP-HaloTag (Testing Method A)
HeLa cells stably expressing EmGFP-HaloTag were inoculated to Dulbecco's Modified Eagle Medium (DMEM) and cultured for 24 hours. Then, a test compound (specifically, compounds of Examples 1 to 7, 9 to 11, 13 to 15, 17 to 20, 24 to 27, 29, 32 to 33, 36 to 42, 44 to 46 and 56) was added thereto at the final concentration shown in Table 2, followed by incubation for 24 hours under conditions of 37° C./5% CO2. The cells were washed with PBS three times and treated with a cell lysis solution containing a proteolytic enzyme inhibitor to obtain a cell extract. The cell extract was subjected to SDS-PAGE. After the electrophoresis, GFP and actin were detected by Western blot. The ratio of the GFP/actin value of the drug-treated cells to the GFP/actin value of a control group in drug-untreated cells was regarded as an activity value. A value of 1 or less represents that degradation of EmGFP-HaloTag was promoted.

Counter-ions that a name gives are not always drawn.

Turning to `CC(=O)N[C@@H](CSc1nc2c(=O)[nH]c(N)nc2n1Cc1ccc(C#N)cc1)C(=O)NCCOCCOCCOCCOCCOCCCCCCCl` [Example 36, N^2-acetyl-S-(2-amino-9-(4-cyanobenzyl)-6-oxo-6,9-dihydro-1H-purin-8-yl)-N-(21-chloro-3,6,9,12,15-pentaoxahenicos-1-yl)-L-cysteinamide], the “Activity value (GFP/actin of drug-treated cells relative to drug-untreated control)” value (10 uM) is 0.9.

In the case of `Nc1nc2c(nc(C(=O)NCCOCCOCCOCCOCCOCCCCCCCl)n2Cc2ccc(F)cc2)c(=O)[nH]1` [Example 33, 2-Amino-N-(21-chloro-3,6,9,12,15-pentaoxahenicos-1-yl)-9-(4-fluorobenzyl)-6-oxo-6,9-dihydro-1H-purine-8-carboxamide], the “Activity value (GFP/actin of drug-treated cells relative to drug-untreated control)” value (1 uM) worked out at 0.9.

In the case of `CC(=O)N[C@@H](CSc1nc2c(=O)[nH]c(N)nc2n1Cc1cncs1)C(=O)NCCOCCOCCOCCOCCOCCCCCCCl` [Example 42, N^2-acetyl-S-(2-amino-6-oxo-9-(1,3-thiazole-5-ylmethyl)-6,9-dihydro-1H-purin-8-yl)-N-(21-chloro-3,6,9,12,15-pentaoxahenicos-1-yl)-L-cysteinamide], the “Activity value (GFP/actin of drug-treated cells relative to drug-untreated control)” value (1 uM) came to 0.8.

In the case of `CC(=O)Nc1nc2c(nc(SC[C@H](NC(C)=O)C(=O)NCCOCCOCCOCCOCCOCCCCCCCl)n2Cc2ccc(F)cc2)c(=O)[nH]1` [Example 27, S-(2-Acetamido-9-(4-fluorobenzyl)-6-oxo-6,9-dihydro-1H-purin-8-yl)-N^2-acetyl-N-(21-chloro-3,6,9,12,15-pentaoxahenicos-1-yl)-L-cysteinamide], the “Activity value (GFP/actin of drug-treated cells relative to drug-untreated control)” value (1 uM) was determined as 0.7.

In the case of `Nc1nc2c(nc(NCC(=O)NCCOCCOCCOCCOCCOCCCCCCCl)n2Cc2ccc(F)cc2)c(=O)[nH]1` [Example 9, N^2-(2-amino-9-(4-fluorobenzyl)-6-oxo-6,9-dihydro-1H-purin-8-yl)-N-(21-chloro-3,6,9,12,15-pentaoxahenicos-1-yl)glycinamide], where the note is “5 uM”, the “Activity value (GFP/actin of drug-treated cells relative to drug-untreated control)” value was 0.47.

In the case of `CC(=O)N[C@@H](CSc1nc2c(N)ncnc2n1Cc1ccc(F)cc1)C(=O)NCCOCCOCCOCCOCCOCCCCCCCl` [Example 17, N^2-Acetyl-S-(6-amino-9-(4-fluorobenzyl)-9H-purin-8-yl)-N-(21-chloro-3,6,9,12,15-pentaoxahenicos-1-yl)-L-cysteinamide trifluoroacetate], the “Activity value (GFP/actin of drug-treated cells relative to drug-untreated control)” value (1 uM) was 0.7.

On to `CC(=O)N[C@@H](CSc1nc2c(=O)[nH]c(N)nc2n1-c1ccccc1)C(=O)NCCOCCOCCOCCOCCOCCCCCCCl` [Example 40, N^2-acetyl-S-(2-amino-6-oxo-9-phenyl-6,9-dihydro-1H-purin-8-yl)-N-(21-chloro-3,6,9,12,15-pentaoxahenicos-1-yl)-L-cysteinamide], for which the “Activity value (GFP/actin of drug-treated cells relative to drug-untreated control)” value (1 uM) came out at 0.7.

Regarding `Nc1nc2c(nc(-c3ccc(OCCOCCOCCOCCOCCOCCCCCCCl)cc3)n2Cc2ccc(F)cc2)c(=O)[nH]1` [Example 11, 2-amino-8-(4-((21-chloro-3,6,9,12,15-pentaoxahenicos-1-yl)oxy)phenyl)-9-(4-fluorobenzyl)-1,9-dihydro-6H-purin-6-enea], the “Activity value (GFP/actin of drug-treated cells relative to drug-untreated control)” value (10 uM) is 0.7.

In the case of `Nc1nc2c(nc(-c3ccc(C(=O)NCCOCCOCCOCCOCCOCCCCCCCl)cc3)n2Cc2ccc(F)cc2)c(=O)[nH]1` [Example 3, 4-(2-Amino-9-(4-fluorobenzyl)-6-oxo-6,9-dihydro-1H-purin-8-yl)-N-(21-chloro-3,6,9,12,15-pentaoxahenicos-1-yl)benzamide], the “Activity value (GFP/actin of drug-treated cells relative to drug-untreated control)” value (100 uM) turned out to be 0.3.

With `Nc1nc2c(nc(-c3cccc(OCCOCCOCCOCCOCCOCCCCCCCl)c3)n2Cc2ccc(F)cc2)c(=O)[nH]1` [Example 10], the “Activity value (GFP/actin of drug-treated cells relative to drug-untreated control)” value (1 uM) was found to be 0.3.

In the case of `Nc1nc2c(nc(-c3cccc(C(=O)NCCOCCOCCOCCOCCOCCCCCCCl)c3)n2Cc2ccc(F)cc2)c(=O)[nH]1` [Example 4, 3-(2-amino-9-(4-fluorobenzyl)-6-oxo-6,9-dihydro-1H-purin-8-yl)-N-(21-chloro-3,6,9,12,15-pentnoxahenicos-1-yl)benzamide], where the note is “10 uM”, the “Activity value (GFP/actin of drug-treated cells relative to drug-untreated control)” value is on record as 0.8.

On to `CC(=O)N[C@@H](CSc1nc2c(=O)[nH]cnc2n1Cc1ccc(F)cc1)C(=O)NCCOCCOCCOCCOCCOCCCCCCCl` [Example 26, N^2-Acetyl-N-(21-chloro-3,6,9,12,15-pentaoxahenicos-1-yl)-S-(9-(4-fluorobenzyl)-6-oxo-6,9-dihydro-1H-purin-8-yl)-L-cysteinamide], for which the “Activity value (GFP/actin of drug-treated cells relative to drug-untreated control)” value (1 uM) is listed as 0.5.

As to `Nc1nc2c(nc(C(=O)N3CCCCC3C(=O)NCCOCCOCCOCCOCCOCCCCCCCl)n2Cc2ccc(F)cc2)c(=O)[nH]1` (stereo not drawn) [Example 46, 1-((2-Amino-9-(4-fluorobenzyl)-6-oxo-6,9-dihydro-1H-purin-8-yl)carbonyl)-N-(21-chloro-3,6,9,12,15-pentaoxahenicos-1-yl)piperidine-2-carboxamide], where the note is “100 uM”, the “Activity value (GFP/actin of drug-treated cells relative to drug-untreated control)” value came to 0.2.

Consider `CC(=O)N[C@@H](CSc1nc2c(=O)[nH]c(N)nc2n1CC1CCOCC1)C(=O)NCCOCCOCCOCCOCCOCCCCCCCl` [Example 29, N^2-acetyl-S-(2-amino-6-oxo-9-(tetrahydro-2H-pyran-4-ylmethyl)-6,9-dihydro-1H-purin-8-yl)-N-(21-chloro-3,6,9,12,15-pentaoxahenicos-1-yl)-L-cysteinamide], for which the “Activity value (GFP/actin of drug-treated cells relative to drug-untreated control)” value (100 uM) amounted to 0.5.

As for `Nc1nc2c(nc(-c3cn(CCOCCOCCOCCOCCOCCCCCCCl)nn3)n2Cc2ccc(F)cc2)c(=O)[nH]1` [Example 15, 2-Amino-8-(1-(21-chloro-3,6,9,12,15-pentaoxahenicos-1-yl)-1H-1,2,3-triazol-4-yl)-9-(4-fluorobenzyl)-1,9-dihydro-6H-purin-6-one], the “Activity value (GFP/actin of drug-treated cells relative to drug-untreated control)” value (1 uM) is 0.9.

With `Nc1nc2c(nc(/C=C/C(=O)NCCOCCOCCOCCOCCOCCCCCCCl)n2Cc2ccc(F)cc2)c(=O)[nH]1` [Example 5, (2E)-3-(2-Amino-9-(4-fluorobenzyl)-6-oxo-6,9-dihydro-1H-purin-8-yl)-N-(21-chloro-3,6,9,12,15-pentaoxahenicos-1-yl)acrylamide], the “Activity value (GFP/actin of drug-treated cells relative to drug-untreated control)” value (1 uM) stood at 0.3.

Take `Nc1nc2c(nc(CCC(=O)NCCOCCOCCOCCOCCOCCCCCCCl)n2Cc2ccc(F)cc2)c(=O)[nH]1` [Example 6, 3-(2-Amino-9-(4-fluorobenzyl)-6-oxo-6,9-dihydro-1H-purin-8-yl)-N-(21-chloro-3,6,9,12,15-pentaoxahenicos-1-yl)propanamide]: the “Activity value (GFP/actin of drug-treated cells relative to drug-untreated control)” value (10 uM) was determined as 0.94.

In the case of `CC(=O)N[C@@H](CSc1nc2c(=O)[nH]c(N)nc2n1Cc1cccc(Cl)c1)C(=O)NCCOCCOCCOCCOCCOCCCCCCCl` [Example 37, N^2-acetyl-S-(2-amino-9-(3-chlorobenzyl)-6-oxo-6,9-dihydro-1H-purin-8-yl)-N-(21-chloro-3,6,9,12,15-pentaoxahenicos-1-yl)-L-cysteinamide], the “Activity value (GFP/actin of drug-treated cells relative to drug-untreated control)” value (1 uM) is 0.7.

For `CC(=O)N[C@@H](CSc1nc2c(=O)n(C)c(=O)n(C)c2n1Cc1ccc(F)cc1)C(=O)NCCOCCOCCOCCOCCOCCCCCCCl` [Example 13, N^2-Acetyl-N-(21-chloro-3,6,9,12,15-pentaoxahenicos-1-yl)-S-(9-(4-fluorobenzyl)-1,3-dimethyl-2,6-dioxo-2,3,6,9-tetrahydro-1H-purin-8-yl)-L-cysteinamide], the “Activity value (GFP/actin of drug-treated cells relative to drug-untreated control)” value (1 uM) is given as 0.1.

Regarding `CC(=O)N[C@@H](CSc1nc2c(=O)[nH]c(N)nc2n1Cc1ccc(C)cc1)C(=O)NCCOCCOCCOCCOCCOCCCCCCCl` [Example 25, N^2-acetyl-S-(2-amino-9-(4-methylbenzyl)-6-oxo-6,9-dihydro-1H-purin-8-yl)-N-(21-chloro-3,6,9,12,15-pentaoxahenicos-1-yl)-L-cysteinamide], for the setting “1 uM”, the “Activity value (GFP/actin of drug-treated cells relative to drug-untreated control)” value turned out to be 0.9.

On to `Nc1nc2c(nc(SCCC(=O)NCCOCCOCCOCCOCCOCCCCCCCl)n2Cc2ccc(F)cc2)c(=O)[nH]1` [Example 2], for which the “Activity value (GFP/actin of drug-treated cells relative to drug-untreated control)” value (10 uM) is listed as 0.9.

As for `Nc1nc2c(nc(-c3cnn(CCOCCOCCOCCOCCOCCCCCCCl)c3)n2Cc2ccc(F)cc2)c(=O)[nH]1` [Example 14, 2-amino-8-(1-(21-chloro-3,6,9,12,15-pentaoxahenicos-1-yl)-1H-pyrazol-4-yl)-9-(4-fluorobenzyl)-1,9-dihydro-6H-purin-6-one], for the setting “1 uM”, the “Activity value (GFP/actin of drug-treated cells relative to drug-untreated control)” value was 0.2.

Take `CC(=O)N[C@@H](CSc1nc2c(=O)[nH]c(N)nc2n1Cc1ccccc1)C(=O)NCCOCCOCCOCCOCCOCCCCCCCl` [Example 20, N^2-Acetyl-S-(2-amino-9-benzyl-6-oxo-6,9-dihydro-1H-purin-8-yl)-N-(21-chloro-3,6,9,12,15-pentaoxahenicos-1-yl)-L-cysteinamide Trifluoroacetate]: the “Activity value (GFP/actin of drug-treated cells relative to drug-untreated control)” value (10 uM) is 0.2.

Regarding `CC(=O)N[C@@H](CSc1nc2c(=O)[nH]c(N)nc2n1Cc1ccccc1Cl)C(=O)NCCOCCOCCOCCOCCOCCCCCCCl` [Example 24, N^2-acetyl-S-(2-amino-9-(2-chlorobenzyl)-6-oxo-6,9-dihydro-1H-purin-8-yl)-N-(21-chloro-3,6,9,12,15-pentaoxahenicos-1-yl)-L-cysteinamide], the “Activity value (GFP/actin of drug-treated cells relative to drug-untreated control)” value (1 uM) worked out at 0.5.

These data come from patent publication US11986480B2, “Heterocyclic compound” (TOHOKU UNIVERSITY, priority 2017, dated 2024).
